Data on six molecules can be found in patent US11135457B2, “Skincare compositions” (Reckitt Benckiser Healthcare International Limited, priority 2009, dated 2021).

Format in all cases: cell-based
The subject of one data set is IL-6. The data set is described as follows: In vitro EpiDerm skin model, PMA irritant: IL-6 release. The conditions noted are these: for IL-6 + PMA: + PMA irritant; for IL-6 no PMA: no PMA irritant. On the procedure: (§1) The purpose of the in vitro testing was to evaluate the potential anti-inflammatory action of compositions according to the present invention.
(§2) In vitro tests were carried out as follows: • take an irritant treated EpiDerm™ skin model. Initial inflammation was measured by the cytokine release after exposure to a single dose of irritant. • apply test compositions to the irritant treated EpiDerm skin • anti-inflammatory potential was then measured by reduction in cytokine release • specifically, the levels of cytokines TNF-α, IL-6 and IL-8 were measured to give a picture of the performance of the product across the lifecycle of an acne event or related skin inflammation.
(§3) Experimental design follows standard procedures, using phorbol-12-myristate 13-acetate (PMA) as irritant. Test samples were applied by pipette as solutions to the Epiderm tissue, and each sample was tested in triplicate against positive and negative controls. Anti-inflammatory activity measured by relative decrease in cytokine release in irritant-treated tissue compared to non-irritant treated tissue.
(§4) The separate active components of an example according to the invention were tested, along with some combinations in pairs and one combination lacking the salicylic acid. Where these actives were applied, they were in the same w/w ratio as in the example composition, example 9.

The next data set has as its system EpiDerm skin model. Kind of data set: MTT viability, EpiDerm skin model.
Another data set has as its system TNF-α. Kind of data set: In vitro EpiDerm skin model, PMA irritant: TNF-α release. Conditions: for TNFα + PMA / TNFα no PMA: EpiDerm skin model; for TNFα + PMA: + PMA irritant; for TNFα no PMA: no PMA irritant. The method, then: as §1, §2, §3, §4
A further data set concerns IL-8. The data set is described as follows: In vitro EpiDerm skin model, PMA irritant: IL-8 release. The conditions noted are these: no PMA irritant (first IL-8 column, c6). On the procedure:
as §1, §2, §3, §4

The structures appear in SMILES notation.

On to `CC1(C)[C@@H](O[C@H]2O[C@H](C(=O)[O-])[C@@H](O)[C@H](O)[C@H]2O[C@@H]2O[C@H](C(=O)[O-])[C@@H](O)[C@H](O)[C@H]2O)CC[C@]2(C)[C@H]3C(=O)C=C4[C@@H]5C[C@@](C)(C(=O)O)CC[C@]5(C)CC[C@@]4(C)[C@]3(C)CC[C@@H]12.[K+].[K+]` [Dipotassium glycyrrhizinate (GLYR)], for which, in the data set on IL-6, the “IL-6 + PMA” value is 7.591 pg/mL and the “IL-6 no PMA” value was -1.781 pg/mL. For the same molecule, the “MTT < 95%” value in the data set on EpiDerm skin model is reported as 93.7%. For the same molecule, in the data set on TNF-α, the “TNFα + PMA” value came to 78.48 pg/mL and the “TNFα no PMA” value is -0.636 pg/mL. Further, the “IL-8 no PMA” value in the data set on IL-8 is 44.413 pg/mL.

Take `NC(=O)c1cccnc1` [Nicotinamide (NA)]: in the data set with IL-6, the “IL-6 + PMA” value was -2.712 pg/mL and the “IL-6 no PMA” value was -4.294 pg/mL. Besides, the “MTT < 95%” value with EpiDerm skin model is 96.8%. Besides, in the data set on TNF-α, the “TNFα + PMA” value amounted to 40.202 pg/mL and the “TNFα no PMA” value is -0.171 pg/mL. In addition, the “IL-8 no PMA” value with IL-8 worked out at 47.54 pg/mL.

With `C[C@]12CCC(=O)C=C1CC[C@@H]1[C@@H]2[C@@H](O)C[C@@]2(C)[C@H]1CC[C@]2(O)C(=O)CO` [Positive control (hydrocortisone)], the “IL-6 + PMA” value in the data set on IL-6 is -4.358 pg/mL. Besides, the “TNFα + PMA” value in the data set with TNF-α was -0.378 pg/mL.

`O=C(O)c1ccccc1O` [Salicylic acid (SCA)]: in the data set on IL-6, the “IL-6 + PMA” value amounted to 6.159 pg/mL and the “IL-6 no PMA” value is -1.445 pg/mL. Also, in the data set with EpiDerm skin model, the “MTT < 95%” value is 103.2%. Besides, in the data set on TNF-α, the “TNFα + PMA” value was 12.265 pg/mL and the “TNFα no PMA” value was -0.068 pg/mL. Also, the “IL-8 no PMA” value in the data set with IL-8 is 72.757 pg/mL.

Take `CC(O)C(=O)[O-].[Na+]` (stereo not drawn) [Sodium Lactate (SLA)]: in the data set on IL-6, the “IL-6 + PMA” value turned out to be 22.6 pg/mL and the “IL-6 no PMA” value came to 4.909 pg/mL. In the data set on EpiDerm skin model, the “MTT < 95%” value was 99.1%. In the data set with TNF-α, the “TNFα + PMA” value is 92.434 pg/mL and the “TNFα no PMA” value was determined as 0.882 pg/mL. Besides, the “IL-8 no PMA” value with IL-8 was determined as 104.549 pg/mL.

Take `O=C(O)c1ccccc1O` [salicylic acid, reference compound]: the “anti-inflammatory action (reduction in cytokine release)” value in the data set with TNF-α (irritant (PMA) treated EpiDerm skin model, cytokines TNF-α, IL-6 and IL-8 taken together) is on record as “acts inter alia as an anti-inflammatory”.
